One experiment has as its system Hep 3B2. Briefly: Antiproliferative activity against human Hep3B cells assessed as reduction in cell viability measured after 5 days in presence of sorafenib by Celltiter-glo assay. It counts as functional, cell-based. Particulars: for EC50: 120 h.
In experiment [1] the test system is Hepatocellular carcinoma organoid. Briefly: Antiproliferative activity against C57BL/6 mouse Hepatocellular carcinoma organoids harboring myristoylated Akt1 and overexpressing Myc assessed as reduction in cell viability measured after 5 days in presence of sorafenib by Celltiter-glo assay. To be noted: Neoplasm, dose 1-5 µM, time 5.0 day. In kind it is functional, tissue-based.

Experiment [2] deals with T1, Oxysterols receptor LXR-beta (Homo sapiens, UniProt P55055).
T1 sequence (P55055 whole entry): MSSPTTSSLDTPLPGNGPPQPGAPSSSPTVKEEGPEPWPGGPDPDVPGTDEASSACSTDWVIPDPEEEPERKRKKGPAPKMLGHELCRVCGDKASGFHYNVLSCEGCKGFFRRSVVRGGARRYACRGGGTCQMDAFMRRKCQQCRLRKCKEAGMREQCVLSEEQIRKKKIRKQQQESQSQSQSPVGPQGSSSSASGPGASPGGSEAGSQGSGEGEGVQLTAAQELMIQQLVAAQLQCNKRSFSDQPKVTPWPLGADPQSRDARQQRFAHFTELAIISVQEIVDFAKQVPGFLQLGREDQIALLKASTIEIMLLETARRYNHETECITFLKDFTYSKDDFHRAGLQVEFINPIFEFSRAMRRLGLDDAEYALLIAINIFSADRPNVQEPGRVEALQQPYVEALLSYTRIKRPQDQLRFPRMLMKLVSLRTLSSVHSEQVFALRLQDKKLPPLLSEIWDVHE
Kind of experiment: Agonist activity at GST-tagged LXRbeta LBD (unknown origin) measured after 6 hrs in presence of fluorescein-TRAP220/DRIP-2 by TR-FRET assay. In general terms: Time-resolved FRET reads energy transfer from a long-lived donor to a nearby acceptor.

Experiment [3] addresses T2, Oxysterols receptor LXR-alpha (Homo sapiens, UniProt Q13133).
T2 sequence (Q13133 whole entry): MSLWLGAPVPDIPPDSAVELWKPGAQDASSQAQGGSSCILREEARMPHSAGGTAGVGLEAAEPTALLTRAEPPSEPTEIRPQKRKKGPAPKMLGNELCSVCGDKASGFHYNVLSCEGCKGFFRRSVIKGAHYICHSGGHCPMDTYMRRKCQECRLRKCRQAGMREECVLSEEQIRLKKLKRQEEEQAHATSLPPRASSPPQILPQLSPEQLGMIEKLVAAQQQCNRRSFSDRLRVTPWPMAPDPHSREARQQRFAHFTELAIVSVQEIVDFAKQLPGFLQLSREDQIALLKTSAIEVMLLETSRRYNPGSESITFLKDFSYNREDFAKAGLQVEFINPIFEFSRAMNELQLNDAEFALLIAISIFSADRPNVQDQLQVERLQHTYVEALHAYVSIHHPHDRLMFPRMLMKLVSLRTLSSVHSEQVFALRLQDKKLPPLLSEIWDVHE
Briefly: Agonist activity at GST-tagged LXRalpha LBD (unknown origin) measured after 6 hrs in presence of fluorescein-TRAP220/DRIP-2 by TR-FRET assay.

For `O=C(O)Cc1cccc(OCCCN(Cc2cccc(C(F)(F)F)c2Cl)CC(c2ccccc2)c2ccccc2)c1`, the EC50 in the experiment on Hep 3B2 was found to be 1.9 µM. Also, the Activity entry (in the experiment on Hep 3B2 (time 5.0 day); in experiment [1]) was “Dose-dependent-effect” in each case. With `O=S(=O)(c1ccccc1)N(CC(F)(F)F)c1ccc(C(O)(C(F)(F)F)C(F)(F)F)cc1`, the Activity result in experiment [1] is “Dose-dependent-effect”. For the compound `CN1CCN(c2ccc(NC3=C(c4ccccc4)C(=O)N(Cc4ccccc4)C3=O)cc2)CC1`, the EC50 result in experiment [2] and in experiment [3] was “Not_active” each time. For the compound `COc1ccc(NC2=C(c3ccccc3)C(=O)N(Cc3ccccc3)C2=O)cc1`, the EC50 with Hep 3B2 came out at 3.8 µM.

As for `CC(C)(C)OC(=O)NC1CCN(c2ccc(NC3=C(c4ccccc4)C(=O)N(Cc4ccccc4)C3=O)cc2)CC1`, the EC50 entry in experiment [2] and in experiment [3] was “Not_active” in each case.

One may read the EC50 as the concentration that produces a half-maximal response.

The values above are taken from ChEMBL document CHEMBL6115048, “Uncovering α-Selectivity for Liver X Receptor Agonists for Lipotoxic Cancer Therapies” (J Med Chem, 2025).
